Reference: US10035800B2 (AbbVie Inc., priority 2013, dated 2018)

What was measured:
BRD4 (BDII_E352-M457) = biological target: T1, BRD4 (BDII_E352-M457) (Homo sapiens, UniProt O60885); assay: TR-FRET bromodomain binding assay, second bromodomain of BRD4; settings: 30 nM probe
T1 construct: protocol; made in house
Method in brief: (§1)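 Displacement of a fluorescent Alexa647 BET-inhibitor probe (100 nM with BDI, 30 nM with BDII) from His-tagged BRD4 bromodomains was monitored by europium TR-FRET after one hour at room temperature. Data were normalized to no-compound and 1 μM unlabelled probe controls, fitted with a four-parameter logistic, and IC50s converted to Ki.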

BRD4 (BDI_K57-E168) = biological target: T2, BRD4 (BDI_K57-E168) (Homo sapiens, UniProt O60885); assay: TR-FRET bromodomain binding assay, first bromodomain of BRD4; settings: 100 nM probe
T2 construct: BD1: amino acids K57-E168; made in house
Method in brief: as §1

[1] = system: breast cancer cell line MX-1; assay: MX-1 cell line proliferation assay; type: cell-based; settings: MX-1 cells, 3-day proliferation assay, Cell Titer Glo; read-out: Cellular proliferation: EC50
Procedure: MX-1 Cell Line Proliferation Assay
The impact of compounds of the Examples on cancer cell proliferation was determined using the breast cancer cell line MX-1 (ATCC) in a 3-day proliferation assay and the data are reported in Table 1. MX-1 cells were maintained in RPMI 1640 medium (Sigma) supplemented with 10% FBS at 37 C.° and an atmosphere of 5% CO2. For compound testing, MX-1 cells were plated in 96-well black bottom plates at a density of 5000 cells/well in 90 μL of culture media and incubated at 37° overnight to allow cell adhesion and spreading. Compound dilution series were prepared in DMSO via a 3-fold serial dilution from 3 mM to 0.1 μM. The DMSO dilution series were then diluted 1:100 in phosphate buffered saline, and 10 μL of the resulted solution were added to the appropriate wells of the MX-1 cell plate. The final compound concentrations in the wells were 3, 1, 0.3, 0.1, 0.03, 0.01, 0.003, 0.001, 0.0003, and 0.0001 μM or 1, 0.3, 0.1, 0.03, 0.01, 0.003, 0.001, 0.0003, 0.0001, and 0.00003 μM.
Luminescence readings from the Cell Titer Glo assay were normalized to the DMSO treated cells and analyzed using the GraphPad Prism software with sigmoidal curve fitting to obtain EC50s. The minimum significant ratio (MSR) was determined to evaluate assay reproducibility (Eastwood et al., (2006) J Biomol Screen, 11: 253-261). The overall MSR was determined to be 2.1 and a moving MSR (last six run MSR overtime) has been <2.

[2] = TR-FRET assay protocol G (compound 0.92 μM-15 pM)
[3] = TR-FRET assay protocol E (compound 9.19 μM-150 pM)

Ki (BRD4 (BDII_E352-M457); [2]) | Ki (BRD4 (BDI_K57-E168); [2]) | Molecule | EC50 [1] | Ki (BRD4 (BDII_E352-M457); [3]) | Ki (BRD4 (BDI_K57-E168); [3])
1.94 nM | 22.5 nM | 1-((4-(2,4-difluorophenyl)-10-methyl-7-((methylsulfonyl)methyl)-11-oxo-3,4,10,11-tetrahydro-1H-1,4,10-triazadibenzo[cd,f]azulen-3-yl)methyl)-3-phenylurea [Example 138] | 256 nM | – | –
1.66 nM | 15.5 nM | 3-(4-(2,4-difluorophenyl)-10-methyl-7-((methylsulfonyl)methyl)-11-oxo-3,4,10,11-tetrahydro-1H-1,4,10-triazadibenzo[cd,f]azulen-3-yl)propanamide [Example 99] | 165 nM | – | –
10.9 nM | 20.8 nM | 4-(2,4-difluorophenyl)-10-methyl-7-((methylsulfonyl)methyl)-11-oxo-3,4,10,11-tetrahydro-1H-1,4,10-triazadibenzo[cd,f]azulene-3-carboxamide [Example 141] | 319 nM | – | –
5 nM | 2.39 nM | Cn1cc2c3c(c[nH]c3c1=O)CN(C1CCC(N)CC1)c1ccc(CS(C)(=O)=O)cc1-2 (mixture of isomers) [Example 212, 4-(4-aminocyclohexyl)-10-methyl-7-((methylsulfonyl)methyl)-3,4-dihydro-1H-1,4,10-triazadibenzo[cd,f]azulen-11(10H)-one] | 155 nM | – | –
3.47 nM | 1.85 nM | CC(=O)NC1CCC(N2Cc3c[nH]c4c(=O)n(C)cc(c34)-c3cc(CS(C)(=O)=O)ccc32)CC1 (mixture of isomers) [Example 243, N-(4-(10-methyl-7-((methylsulfonyl)methyl)-11-oxo-10,11-dihydro-1H-1,4,10-triazadibenzo[cd,f]azulen-4(3H)-yl)cyclohexyl)acetamide] | 153 nM | – | –
13.2 nM | 9.37 nM | Cn1cc2c3c(c[nH]c3c1=O)CN(Cc1ccccc1OCC(N)=O)c1ccc(CS(C)(=O)=O)cc1-2 [Example 262, 2-(2-((10-methyl-7-((methylsulfonyl)methyl)-11-oxo-10,11-dihydro-1H-1,4,10-triazadibenzo[cd,f]azulen-4(3H)-yl)methyl)phenoxy)acetamide] | – | – | –
94.7 nM | 72.7 nM | CCS(=O)(=O)c1ccc2c(c1)-c1cn(C)c(=O)c3[nH]cc(c13)CN2[C@@H](C)c1ccccc1 [Example 267, (S)-7-(ethylsulfonyl)-10-methyl-4-(1-phenylethyl)-3,4-dihydro-1H-1,4,10-triazadibenzo[cd,f]azulen-11(10H)-one] | – | – | –
16.4 nM | 82.8 nM | COC(=O)CCC1c2c[nH]c3c(=O)n(C)cc(c23)-c2cc(CS(C)(=O)=O)ccc2N1c1ccc(F)cc1F [Example 268, (R)-methyl 3-(4-(2,4-difluorophenyl)-10-methyl-7-((methylsulfonyl)methyl)-11-oxo-3,4,10,11-tetrahydro-1H-1,4,10-triazadibenzo[cd,f]azulen-3-yl)propanoate] | – | – | –
0.88 nM | 1.12 nM | Cn1cc(-c2[nH]c3c(=O)n(C)cc4c3c2CN(c2ccccn2)c2ccc(CS(C)(=O)=O)cc2-4)cn1 [Example 273, 10-methyl-2-(1-methyl-1H-pyrazol-4-yl)-7-((methylsulfonyl)methyl)-4-(pyridin-2-yl)-3,4-dihydro-1H-1,4,10-triazadibenzo[cd,f]azulen-11(10H)-one] | – | – | –
1.56 nM | 2.83 nM | Cn1cc(-c2[nH]c3c(=O)n(C)cc4c3c2CN(c2ccccc2)c2ccc(S(C)(=O)=O)cc2-4)cn1 [Example 274, 10-methyl-2-(1-methyl-1H-pyrazol-4-yl)-7-(methylsulfonyl)-4-phenyl-3,4-dihydro-1H-1,4,10-triazadibenzo[cd,f]azulen-11(10H)-one] | – | – | –
0.85 nM | 2.09 nM | Cn1cc(-c2[nH]c3c(=O)n(C)cc4c3c2CN(c2ccccn2)c2ccc(S(C)(=O)=O)cc2-4)cn1 [Example 275, 10-methyl-2-(1-methyl-1H-pyrazol-4-yl)-7-(methylsulfonyl)-4-(pyridin-2-yl)-3,4-dihydro-1H-1,4,10-triazadibenzo[cd,f]azulen-11(10H)-one] | – | – | –
1.18 nM | 1.19 nM | Cn1cc(-c2[nH]c3c(=O)n(C)cc4c3c2CN(c2ccc(F)cc2)c2ccc(CS(C)(=O)=O)cc2-4)cn1 [Example 276, 4-(4-fluorophenyl)-10-methyl-2-(1-methyl-1H-pyrazol-4-yl)-7-((methylsulfonyl)methyl)-3,4-dihydro-1H-1,4,10-triazadibenzo[cd,f]azulen-11(10H)-one] | – | – | –
6.35 nM | 58.9 nM | (R)—N-ethyl-7-(ethylsulfonyl)-10-methyl-11-oxo-4-(1-phenylpropyl)-3,4,10,11-tetrahydro-1H-1,4,10-triazadibenzo[cd,f]azulene-2-carboxamide [Example 272] | – | – | –
19.4 nM | 16.5 nM | N-(3-methoxypropyl)-10-methyl-7-((methylsulfonyl)methyl)-11-oxo-10,11-dihydro-1H-1,4,10-triazadibenzo[cd,f]azulene-4(3H)-carboxamide [Example 73] | – | – | –

Continued, molecule first:

Molecule | Ki (BRD4 (BDII_E352-M457); [2]) | Ki (BRD4 (BDI_K57-E168); [2]) | EC50 [1] | Ki (BRD4 (BDII_E352-M457); [3]) | Ki (BRD4 (BDI_K57-E168); [3])
4-(1H-indazol-5-yl)-10-methyl-7-((methylsulfonyl)methyl)-3,4-dihydro-1H-1,4,10-triazadibenzo[cd,f]azulen-11(10H)-one [Example 246] | 3.6 nM | 4.32 nM | 11.7 nM | – | –
4-(2-(3-(dimethylamino)propoxy)benzyl)-10-methyl-7-((methylsulfonyl)methyl)-3,4-dihydro-1H-1,4,10-triazadibenzo[cd,f]azulen-11(10H)-one [Example 260] | 3.4 nM | 7.26 nM | 219 nM | – | –
4-(2-fluoropyridin-4-yl)-10-methyl-7-((methylsulfonyl)methyl)-3,4-dihydro-1H-1,4,10-triazadibenzo[cd,f]azulen-11(10H)-one [Example 254] | 0.71 nM | 1.12 nM | 3.9 nM | – | –
4-(4-chlorophenyl)-10-methyl-2-(1-methyl-1H-pyrazol-4-yl)-7-(methylsulfonyl)-3,4-dihydro-1H-1,4,10-triazadibenzo[cd,f]azulen-11(10H)-one [Example 271] | 1.64 nM | 3.91 nM | 85.2 nM | – | –
4-(6-methoxypyridin-2-yl)-10-methyl-7-((methylsulfonyl)methyl)-3,4-dihydro-1H-1,4,10-triazadibenzo[cd,f]azulen-11(10H)-one [Example 256] | 0.54 nM | 0.59 nM | 0.35 nM | – | –
4-([1,1′-biphenyl]-4-carbonyl)-10-methyl-7-((methylsulfonyl)methyl)-3,4-dihydro-1H-1,4,10-triazadibenzo[cd,f]azulen-11(10H)-one [Example 102] | 26.9 nM | 9.41 nM | 151 nM | – | –
4-(cyclopropylmethyl)-7-(isopropylsulfonyl)-10-methyl-3,4-dihydro-1H-1,4,10-triazadibenzo[cd,f]azulen-11(10H)-one [Example 1] | – | – | 27.2 nM | 10.5 nM | 32.7 nM
10-methyl-4-(pyridin-2-yl)-7-(pyrrolidin-1-ylsulfonyl)-3,4-dihydro-1H-1,4,5,10-tetraazadibenzo[cd,f]azulen-11(10H)-one [Example 266] | 8.15 nM | 17.8 nM | 42.7 nM | – | –
10-methyl-7-((methylsulfonyl)methyl)-4-(piperidin-4-ylmethyl)-3,4-dihydro-1H-1,4,10-triazadibenzo[cd,f]azulen-11(10H)-one [Example 37] | 2.4 nM | 3.36 nM | > 1000 nM | – | –
10-methyl-7-((methylsulfonyl)methyl)-4-(pyrimidin-4-yl)-3,4-dihydro-1H-1,4,10-triazadibenzo[cd,f]azulen-11(10H)-one [Example 259] | 3.05 nM | 3.4 nM | 19 nM | – | –
N-(2-chloroethyl)-10-methyl-7-((methylsulfonyl)methyl)-11-oxo-10,11-dihydro-1H-1,4,10-triazadibenzo[cd,f]azulene-4(3H)-carboxamide [Example 66] | > 408 nM | > 238 nM | – | – | –
tert-butyl 4-(3-(4-(2,4-difluorophenyl)-10-methyl-7-((methylsulfonyl)methyl)-11-oxo-3,4,10,11-tetrahydro-1H-1,4,10-triazadibenzo[cd,f]azulen-3-yl)propanamido)piperidine-1-carboxylate [Example 126] | 80 nM | 53.6 nM | – | – | –
